What was measured:
Pseudomonas aeruginosa [1] = type: functional; conditions: isolate Paebeta-24
Pseudomonas aeruginosa [2] = type: functional; conditions: isolate Paebeta-18
Pseudomonas aeruginosa [3] = type: functional; conditions: isolate Paebeta-03
Pseudomonas aeruginosa [4] = type: functional; conditions: isolate Paebeta-15
Pseudomonas aeruginosa [5] = type: functional; conditions: isolate Paebeta-27
Pseudomonas aeruginosa [6] = type: functional; conditions: isolate Paebeta-13
Pseudomonas aeruginosa [7] = type: functional; conditions: isolate Paebeta-05
Pseudomonas aeruginosa [8] = type: functional; conditions: isolate Paebeta-18; remark: listed apart in the source
Pseudomonas aeruginosa [9] = type: functional; conditions: isolate Paebeta-32
Pseudomonas aeruginosa [10] = type: functional; conditions: isolate Paebeta-30
Pseudomonas aeruginosa [11] = type: functional; conditions: isolate Paebeta-29
Pseudomonas aeruginosa [12] = type: functional; conditions: isolate Paebeta-03; remark: listed apart in the source
Pseudomonas aeruginosa [13] = type: functional; conditions: isolate Paebeta-19
Pseudomonas aeruginosa [14] = type: functional; conditions: isolate Paebeta-20
Pseudomonas aeruginosa [15] = type: functional; conditions: isolate Paebeta-23
Pseudomonas aeruginosa [16] = type: functional; conditions: isolate Paebeta-27; remark: listed apart in the source
Pseudomonas aeruginosa [17] = type: functional; conditions: isolate Paebeta-09
Pseudomonas aeruginosa [18] = type: functional; conditions: isolate Paebeta-19; remark: listed apart in the source
Pseudomonas aeruginosa [19] = type: functional; conditions: isolate Paebeta-17
Pseudomonas aeruginosa [20] = type: functional; conditions: isolate Paebeta-31
Pseudomonas aeruginosa [21] = type: functional; conditions: isolate Paebeta-32; remark: listed apart in the source
Pseudomonas aeruginosa [22] = type: functional; conditions: isolate Paebeta-08
Pseudomonas aeruginosa [23] = type: functional; conditions: isolate Paebeta-10
Pseudomonas aeruginosa [24] = type: functional; conditions: isolate Paebeta-09; remark: listed apart in the source
Pseudomonas aeruginosa [25] = type: functional; conditions: isolate Paebeta-31; remark: listed apart in the source
Pseudomonas aeruginosa [26] = type: functional; conditions: isolate Paebeta-28
Pseudomonas aeruginosa [27] = type: functional; conditions: isolate Paebeta-14
Pseudomonas aeruginosa [28] = type: functional; conditions: isolate Paebeta-25
Pseudomonas aeruginosa [29] = type: functional; conditions: isolate Paebeta-11
Pseudomonas aeruginosa [30] = type: functional; conditions: isolate Paebeta-10; remark: listed apart in the source
Pseudomonas aeruginosa [31] = type: functional; conditions: isolate Paebeta-07
Pseudomonas aeruginosa [32] = type: functional; conditions: isolate Paebeta-22
Pseudomonas aeruginosa [33] = assay: microbe, parasite or virus in culture; conditions: isolate Paebeta-12
Description: Antibacterial activity against mexB, mexY and mexD expressing Pseudomonas aeruginosa isolate Paebeta-12 harboring A residue at 105 position in PDC- 2 and polymorphic OprD gene by Etest method in presence of cloxacillin

Pseudomonas aeruginosa [34] = type: functional; conditions: isolate Paebeta-05; remark: listed apart in the source
Pseudomonas aeruginosa [35] = type: functional; conditions: isolate Paebeta-02
Pseudomonas aeruginosa [36] = type: functional; conditions: isolate Paebeta-24; remark: listed apart in the source
Pseudomonas aeruginosa [37] = type: functional; conditions: isolate Paebeta-11; remark: listed apart in the source
Pseudomonas aeruginosa [38] = type: functional; conditions: isolate Paebeta-21
Pseudomonas aeruginosa [39] = type: functional; conditions: isolate Paebeta-28; remark: listed apart in the source
Pseudomonas aeruginosa [40] = type: functional; conditions: isolate Paebeta-22; remark: listed apart in the source
Pseudomonas aeruginosa [41] = type: functional; conditions: isolate Paebeta-04
Pseudomonas aeruginosa [42] = type: functional; conditions: isolate Paebeta-04; remark: listed apart in the source
Pseudomonas aeruginosa [43] = type: functional; conditions: isolate Paebeta-20; remark: listed apart in the source
Pseudomonas aeruginosa [44] = type: functional; conditions: isolate Paebeta-02; remark: listed apart in the source
Pseudomonas aeruginosa [45] = type: functional; conditions: isolate Paebeta-06
Pseudomonas aeruginosa [46] = type: functional; conditions: isolate Paebeta-01
Pseudomonas aeruginosa [47] = type: functional; conditions: isolate Paebeta-12
Pseudomonas aeruginosa [48] = type: functional; conditions: isolate Paebeta-13; remark: listed apart in the source
Pseudomonas aeruginosa [49] = type: functional; conditions: isolate Paebeta-16
Pseudomonas aeruginosa [50] = type: functional; conditions: isolate Paebeta-21; remark: listed apart in the source
Pseudomonas aeruginosa [51] = type: functional; conditions: isolate Paebeta-16; remark: listed apart in the source
Pseudomonas aeruginosa [52] = type: functional; conditions: isolate Paebeta-30; remark: listed apart in the source
Pseudomonas aeruginosa [53] = type: functional; conditions: isolate Paebeta-29; remark: listed apart in the source
Pseudomonas aeruginosa [54] = type: functional; conditions: isolate Paebeta-06; remark: listed apart in the source
Pseudomonas aeruginosa [55] = type: functional; conditions: isolate Paebeta-07; remark: listed apart in the source
Pseudomonas aeruginosa [56] = type: functional; conditions: isolate Paebeta-01; remark: listed apart in the source
Pseudomonas aeruginosa [57] = type: functional; conditions: isolate Paebeta-26
Pseudomonas aeruginosa [58] = type: functional; conditions: isolate Paebeta-08; remark: listed apart in the source
Pseudomonas aeruginosa [59] = type: functional; conditions: isolate Paebeta-26; remark: listed apart in the source
Pseudomonas aeruginosa [60] = type: functional; conditions: isolate Paebeta-14; remark: listed apart in the source
Pseudomonas aeruginosa [61] = type: functional; conditions: isolate Paebeta-23; remark: listed apart in the source
Pseudomonas aeruginosa [62] = type: functional; conditions: isolate Paebeta-25; remark: listed apart in the source
Pseudomonas aeruginosa [63] = type: functional; conditions: isolate Paebeta-15; remark: listed apart in the source
Pseudomonas aeruginosa [64] = type: functional; conditions: isolate Paebeta-17; remark: listed apart in the source

Measured: MIC

CO/N=C(\C(=O)N[C@@H]1C(=O)N2C(C(=O)[O-])=C(C[N+]3(C)CCCC3)CS[C@H]12)c1csc(N)n1
128 µg/mL: Pseudomonas aeruginosa [2] | Pseudomonas aeruginosa [4]
64 µg/mL: Pseudomonas aeruginosa [1] | Pseudomonas aeruginosa [3] | Pseudomonas aeruginosa [5]

CC(C)(O/N=C(\C(=O)N[C@@H]1C(=O)N2C(C(=O)[O-])=C(C[n+]3ccccc3)CS[C@H]12)c1csc(N)n1)C(=O)O [CEFTAZIDIME]
64 µg/mL: Pseudomonas aeruginosa [1] | Pseudomonas aeruginosa [61] | Pseudomonas aeruginosa [64]
32 µg/mL: Pseudomonas aeruginosa [7] | Pseudomonas aeruginosa [8] | Pseudomonas aeruginosa [9] | Pseudomonas aeruginosa [25] | Pseudomonas aeruginosa [28] | Pseudomonas aeruginosa [34] | Pseudomonas aeruginosa [42] | Pseudomonas aeruginosa [50] | Pseudomonas aeruginosa [51] | Pseudomonas aeruginosa [4] | Pseudomonas aeruginosa [59]
4 µg/mL: Pseudomonas aeruginosa [16] | Pseudomonas aeruginosa [18] | Pseudomonas aeruginosa [38] | Pseudomonas aeruginosa [41] | Pseudomonas aeruginosa [48] | Pseudomonas aeruginosa [49] | Pseudomonas aeruginosa [57] | Pseudomonas aeruginosa [62]
2 µg/mL: Pseudomonas aeruginosa [12] | Pseudomonas aeruginosa [17] | Pseudomonas aeruginosa [23] | Pseudomonas aeruginosa [26] | Pseudomonas aeruginosa [27] | Pseudomonas aeruginosa [29] | Pseudomonas aeruginosa [54] | Pseudomonas aeruginosa [55] | Pseudomonas aeruginosa [58]
128 µg/mL: Pseudomonas aeruginosa [2]
0.12 µg/mL: Pseudomonas aeruginosa [6]
16 µg/mL: Pseudomonas aeruginosa [20] | Pseudomonas aeruginosa [22] | Pseudomonas aeruginosa [24] | Pseudomonas aeruginosa [30] | Pseudomonas aeruginosa [31] | Pseudomonas aeruginosa [32] | Pseudomonas aeruginosa [36] | Pseudomonas aeruginosa [37] | Pseudomonas aeruginosa [39] | Pseudomonas aeruginosa [3] | Pseudomonas aeruginosa [45] | Pseudomonas aeruginosa [47] | Pseudomonas aeruginosa [5] | Pseudomonas aeruginosa [60]
1 µg/mL: Pseudomonas aeruginosa [14] | Pseudomonas aeruginosa [33] | Pseudomonas aeruginosa [40]
8 µg/mL: Pseudomonas aeruginosa [10] | Pseudomonas aeruginosa [11] | Pseudomonas aeruginosa [13] | Pseudomonas aeruginosa [15] | Pseudomonas aeruginosa [19] | Pseudomonas aeruginosa [21] | Pseudomonas aeruginosa [35] | Pseudomonas aeruginosa [43] | Pseudomonas aeruginosa [44] | Pseudomonas aeruginosa [46] | Pseudomonas aeruginosa [52] | Pseudomonas aeruginosa [53] | Pseudomonas aeruginosa [56] | Pseudomonas aeruginosa [63]

C[C@H]1[C@H](NC(=O)/C(=N\OC(C)(C)C(=O)O)c2csc(N)n2)C(=O)N1S(=O)(=O)O [AZTREONAM]
128 µg/mL: Pseudomonas aeruginosa [2]

C[C@@H](O)[C@H]1C(=O)N2C(C(=O)O)=C(S[C@@H]3CN[C@H](C(=O)N(C)C)C3)[C@H](C)[C@H]12 [MEROPENEM]
2 µg/mL: Pseudomonas aeruginosa [6] | Pseudomonas aeruginosa [27] | Pseudomonas aeruginosa [29] | Pseudomonas aeruginosa [33] | Pseudomonas aeruginosa [49] | Pseudomonas aeruginosa [54] | Pseudomonas aeruginosa [55] | Pseudomonas aeruginosa [58]
1 µg/mL: Pseudomonas aeruginosa [40]
32 µg/mL: Pseudomonas aeruginosa [1] | Pseudomonas aeruginosa [8] | Pseudomonas aeruginosa [11] | Pseudomonas aeruginosa [50] | Pseudomonas aeruginosa [53]
8 µg/mL: Pseudomonas aeruginosa [7] | Pseudomonas aeruginosa [10] | Pseudomonas aeruginosa [15] | Pseudomonas aeruginosa [20] | Pseudomonas aeruginosa [21] | Pseudomonas aeruginosa [22] | Pseudomonas aeruginosa [24] | Pseudomonas aeruginosa [25] | Pseudomonas aeruginosa [28] | Pseudomonas aeruginosa [30] | Pseudomonas aeruginosa [31] | Pseudomonas aeruginosa [34] | Pseudomonas aeruginosa [37] | Pseudomonas aeruginosa [43] | Pseudomonas aeruginosa [3] | Pseudomonas aeruginosa [45] | Pseudomonas aeruginosa [46] | Pseudomonas aeruginosa [47] | Pseudomonas aeruginosa [48] | Pseudomonas aeruginosa [52] | Pseudomonas aeruginosa [4] | Pseudomonas aeruginosa [56] | Pseudomonas aeruginosa [62] | Pseudomonas aeruginosa [64]
16 µg/mL: Pseudomonas aeruginosa [9] | Pseudomonas aeruginosa [36] | Pseudomonas aeruginosa [38] | Pseudomonas aeruginosa [41] | Pseudomonas aeruginosa [42] | Pseudomonas aeruginosa [61]
4 µg/mL: Pseudomonas aeruginosa [12] | Pseudomonas aeruginosa [13] | Pseudomonas aeruginosa [14] | Pseudomonas aeruginosa [17] | Pseudomonas aeruginosa [18] | Pseudomonas aeruginosa [19] | Pseudomonas aeruginosa [23] | Pseudomonas aeruginosa [26] | Pseudomonas aeruginosa [32] | Pseudomonas aeruginosa [35] | Pseudomonas aeruginosa [39] | Pseudomonas aeruginosa [44] | Pseudomonas aeruginosa [51] | Pseudomonas aeruginosa [57] | Pseudomonas aeruginosa [59] | Pseudomonas aeruginosa [60] | Pseudomonas aeruginosa [63]

C[C@@H](O)[C@H]1C(=O)N2C(C(=O)O)=C(SCCNC=N)C[C@H]12 [IMIPENEM ANHYDROUS]
8 µg/mL: Pseudomonas aeruginosa [10] | Pseudomonas aeruginosa [15] | Pseudomonas aeruginosa [19] | Pseudomonas aeruginosa [28] | Pseudomonas aeruginosa [32] | Pseudomonas aeruginosa [36] | Pseudomonas aeruginosa [52] | Pseudomonas aeruginosa [62]
16 µg/mL: Pseudomonas aeruginosa [7] | Pseudomonas aeruginosa [8] | Pseudomonas aeruginosa [11] | Pseudomonas aeruginosa [16] | Pseudomonas aeruginosa [20] | Pseudomonas aeruginosa [21] | Pseudomonas aeruginosa [22] | Pseudomonas aeruginosa [24] | Pseudomonas aeruginosa [25] | Pseudomonas aeruginosa [30] | Pseudomonas aeruginosa [31] | Pseudomonas aeruginosa [34] | Pseudomonas aeruginosa [37] | Pseudomonas aeruginosa [39] | Pseudomonas aeruginosa [42] | Pseudomonas aeruginosa [43] | Pseudomonas aeruginosa [3] | Pseudomonas aeruginosa [45] | Pseudomonas aeruginosa [47] | Pseudomonas aeruginosa [48] | Pseudomonas aeruginosa [50] | Pseudomonas aeruginosa [53] | Pseudomonas aeruginosa [4] | Pseudomonas aeruginosa [60]
2 µg/mL: Pseudomonas aeruginosa [12] | Pseudomonas aeruginosa [17] | Pseudomonas aeruginosa [23] | Pseudomonas aeruginosa [27] | Pseudomonas aeruginosa [29] | Pseudomonas aeruginosa [38] | Pseudomonas aeruginosa [54] | Pseudomonas aeruginosa [55] | Pseudomonas aeruginosa [58]
32 µg/mL: Pseudomonas aeruginosa [1] | Pseudomonas aeruginosa [51] | Pseudomonas aeruginosa [5] | Pseudomonas aeruginosa [61] | Pseudomonas aeruginosa [64]
0.5 µg/mL: Pseudomonas aeruginosa [6] | Pseudomonas aeruginosa [40]
4 µg/mL: Pseudomonas aeruginosa [14] | Pseudomonas aeruginosa [18] | Pseudomonas aeruginosa [26] | Pseudomonas aeruginosa [41] | Pseudomonas aeruginosa [49] | Pseudomonas aeruginosa [57]
1 µg/mL: Pseudomonas aeruginosa [33]
64 µg/mL: Pseudomonas aeruginosa [9] | Pseudomonas aeruginosa [2]
